# Columns and labels:
# solubility in water = type: physicochemical; settings: 6BIO by itself, result in words
# [1] = 24 h organ biodistribution in mice with femoral fracture; type: in vivo, CD4 Swiss mice; settings: i.v.
substance,measurement,setting,value
6’-bromoindirubin-3’-oxime [6BIO],solubility in water,solubility in water,only sparingly soluble in water
same,drug uptake in the fractured femur over the healthy femur,[1]; 125I-labelled analogues,no statistical difference
same,"accumulation in the lungs, liver, and spleen","[1]; 125I-labelled, result in words",high accumulation
